For series [1], the system named is Hs578T. Put plainly: Wound healing migration assay. The series is classed as cell-based. The following applies: Homo sapiens, Hs-578T; HS578T cell line; Table Ib. In a few lines: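 Compound exposure at 12.5, 6.25 and 3.125 μM, with DMSO control, on scratch-wounded monolayers (150000 cells/24 well, overnight). Wound closure imaged by microscopy, fixed with crystal violet after 48 h or 72 h depending on cell line; IC50 is the concentration giving 50% wound size between t0 and t48/t72.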

Series [2] deals with Hs578T. Put plainly: Matrigel outgrowth assay/branching assay. The series is classed as cell-based. The following applies: Homo sapiens, Hs-578T; HS578T cell line; Table Ib; read-out: Total branching inhibition in Matrigel HS578T. Put shortly:
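Cells (5000/well) were seeded onto polymerized 3 mg/ml Matrigel with compound at 3.125, 1.56 or 0.78 μM versus DMSO. Branching was imaged by inverted microscopy (5× objective) at 48, 72 and 96 h. Only concentrations giving total branching inhibition scored positive.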

The target of series [3] is T1, wild type AXL (wtAXL) receptor tyrosine kinase (Homo sapiens, UniProt P30530).
T1 construct: WtAXL cDNA was cloned into vector pLXSN(ESK) and transfected into Phoenix E packaging cells; expressed in transfected cells; host or cells: NIH3T3 N7 (mouse fibroblasts), retrovirally infected, clone 22
T1 sequence (P30530 26-894): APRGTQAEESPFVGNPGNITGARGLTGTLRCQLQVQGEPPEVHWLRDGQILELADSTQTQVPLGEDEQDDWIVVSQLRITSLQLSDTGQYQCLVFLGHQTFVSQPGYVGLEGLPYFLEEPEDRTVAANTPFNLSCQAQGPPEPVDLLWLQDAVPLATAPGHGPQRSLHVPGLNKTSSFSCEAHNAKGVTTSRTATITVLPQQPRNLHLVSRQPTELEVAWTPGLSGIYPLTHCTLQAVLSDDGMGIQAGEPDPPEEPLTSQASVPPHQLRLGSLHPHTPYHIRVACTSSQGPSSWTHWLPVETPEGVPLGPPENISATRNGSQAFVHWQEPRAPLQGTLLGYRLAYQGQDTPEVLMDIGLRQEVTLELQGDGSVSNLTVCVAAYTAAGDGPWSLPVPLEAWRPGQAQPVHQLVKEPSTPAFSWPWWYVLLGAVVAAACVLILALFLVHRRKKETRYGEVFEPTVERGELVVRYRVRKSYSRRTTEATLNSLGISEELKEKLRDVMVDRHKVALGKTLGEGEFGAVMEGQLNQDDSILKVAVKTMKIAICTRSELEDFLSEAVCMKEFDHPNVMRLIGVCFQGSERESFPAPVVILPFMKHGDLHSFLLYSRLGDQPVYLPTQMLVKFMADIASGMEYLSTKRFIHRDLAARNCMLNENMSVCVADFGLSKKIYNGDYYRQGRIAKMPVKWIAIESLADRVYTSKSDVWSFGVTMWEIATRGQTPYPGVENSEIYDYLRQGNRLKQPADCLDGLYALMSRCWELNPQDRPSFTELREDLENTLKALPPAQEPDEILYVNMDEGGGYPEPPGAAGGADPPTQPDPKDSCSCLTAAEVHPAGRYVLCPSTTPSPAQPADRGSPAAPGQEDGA
Nature of the series: NIH-3T3-AXL cellular kinase assay (pY-AXL-ELISA). Format: cell-based. To be noted: NIH-3T3-AXL (clone 22) cells, serum depleted, compounds 1 h; Table Ia. Here is the method: WtAXL cDNA was cloned into vector pLXSN(ESK) and transfected into Phoenix E packaging cells. The viral supernatant was collected and used to infect target cells NIH3T3 N7. Monoclonal NIH3T3-AXL cell lines stably expressing wtAXL were generated by selecting retrovirally infected cells in medium containing puromycin (2 μg/ml) and subsequent clonal separation.
Serial dilutions of compounds were added, and the cells were further incubated for 1 h. Cells were washed with PBS and lysed on ice in 500 μl lysis buffer (50 mM HEPES (pH 7.5), 150 mM NaCl, 1 mM EGTA, 10% Glycerol, 1% Triton X-100, 100 mM NaF, 10 mM Na4P2O7.10H2O, 1 mM Na3VO4, 1 mM phenylmethylsulfonyl fluoride, and […]) for 15 min. The cell lysate were used for phosphotyrosine AXL enzyme-linked immunosorbant assay (pY-AXL-ELISA). […] Subsequently 96-well plates were blocked with PBS-0.05% Tween®20+10% FBS for 4 h at 37° C. Plates were washed 5 times with PBS-0.05% Tween®20 and 95 μl of lysate was transferred per well for incubation overnight at 4° C. Plates were washed 5 times with PBS-0.05% Tween®20 (Sigma, Steinheim, Germany). For detection of phosphorylated tyrosine we used homemade biotynilated 4G10-antibody (0.5 μg/ml) in PBS-0.05% Tween®20+10% FBS (100 μl/well) and incubated the 96-well plate for 2 h at room temperature. The anti-phosphotyrosine mouse monoclonal antibody 4G10 was biotynilated with Sulfo-NHS®-Biotin according to the suppliers protocol (Pierce, Rockford, Ill., USA) and purified by Mirco Bio-Spin 6 Chromatograpy Columns (BIO RAD Laboratories, Inc., Hercules, Calif., USA) using PBS as diluent. Plates were washed 5 times with PBS-0.05% Tween®20. For biding to biotin Alkaline Phosphatase Conjugated Strepavidin SA110 (Millipore, Billerica, Mass., USA) (1:4000) was used in PBS-0.05% Tween20+10% FBS (100 μl/well) and incubated for 30 min at room temperature. Plates were washed 5 times with PBS-0.05% Tween20. For fluorimetric detection of alkaline phosphatase AttoPhos Substrate Set (Roche diagnostics GmbH, Mannheim, Germany) was used (100 μl/well). The fluorimetric signal was quantified after 90 min at 430/560 nm wavelength using a TECAN Ultra Evolution plate reader (Tecan Deutschland GmbH, Crailsheim, Germany).
For orientation: In an ELISA, binding on a coated surface is turned into a signal by an enzyme label.

Series [4] concerns Hs578T. Nature of the series: Cell vitality assay (ATP assay, CellTiter-Glo). To be noted: Homo sapiens, Hs-578T; HS578T cell line, 72 h; Table Ib; read-out: IC50 ATP-Assay HS578T after 72 h. Format: cell-based. Put shortly: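 Viability is estimated from cellular ATP after 72 h of compound treatment at 1000 cells per well. The dilution series runs 12.5, 6.25, 3.125, 1.56, 0.78, 0.39 and 0.195 μM. Half-maximal values are expressed against DMSO-treated wells.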
In general terms: In ATP-based viability assays light output follows the ATP content of the culture.

This passage reports melting point and IC50 results from US9169241B2, “Quinolinyloxyphenylsulfonamides” (Max-Planck-Gesellschaft Zur Forderung der Wissenschaften …, priority 2009, dated 2015).

One may read the melting point as the temperature of the solid-liquid transition.

`COc1cc2c(Oc3ccc(NS(=O)(=O)c4cccc(C(F)(F)F)c4)cc3F)ccnc2cc1OCCCN1CCCCC1` [Example 5, N-{3-Fluoro-4-[6-methoxy-7-(3-piperidin-1-yl-propoxy)-quinolin-4-yloxy]-phenyl}-3-trifluoromethyl-benzenesulfonamide] showed a melting point of 123 to 126 °C. Moreover, the IC50 in the series with Hs578T [1] was 12.5 to 50 µM. Besides, in the series on Hs578T [2], the IC50 lay within 10 to 25 µM. The compound also showed an IC50 in series [3] below 0.5 µM. Moreover, the IC50 in the series on Hs578T [4] is at most 12.5 µM.
The compound `COc1cc2c(Oc3ccc(NS(=O)(=O)c4cccc(OC(F)F)c4)cc3F)ccnc2cc1OCCCN1CCCCC1` [Example 9, 3-Difluoromethoxy-N-{3-fluoro-4-[6-methoxy-7-(3-piperidin-1-yl-propoxy)-quinolin-4-yloxy]-phenyl}-benzenesulfonamide] returned a melting point of 105 to 106 °C. The compound also displayed an IC50 in the series with Hs578T [1] of 12.5 to 50 µM. Besides, in the series with Hs578T [2], the IC50 fell in the range of 10 to 25 µM. The compound further had an IC50 in series [3] below 0.5 µM. For the same compound, the IC50 in the series on Hs578T [4] was at most 12.5 µM.
For `COc1cc2c(Oc3ccc(NS(=O)(=O)c4ccccc4)cc3F)ccnc2cc1OCCCN1CCCC(C)C1` (stereo not drawn) [Example 36, N-(3-Fluoro-4-{6-methoxy-7-[3-(3-methyl-piperidin-1-yl)-propoxy]-quinolin-4-yloxy}-phenyl)-benzenesulfonamide], the melting point fell in the range of 160 to 161 °C. For the same compound, the IC50 in the series on Hs578T [1] lay in the range of 12.5 to 50 µM. The IC50 with Hs578T [2] lay within 10 to 25 µM. The compound also gave an IC50 in series [3] below 0.5 µM. For the same compound, the IC50 in the series with Hs578T [4] was at most 12.5 µM.
Compound `COc1cc2c(Oc3ccc(NS(=O)(=O)c4cccc(F)c4)cc3F)ccnc2cc1OCCCN1CCCC(C)C1` (stereo not drawn) [Example 37, 3-Fluoro-N-(3-fluoro-4-{6-methoxy-7-[3-(3-methyl-piperidin-1-yl)-propoxy]-quinolin-4-yloxy}-phenyl)-benzenesulfonamide] gave a melting point of 113 to 115 °C. The IC50 in the series with Hs578T [1] is 12.5 to 50 µM. Moreover, in the series with Hs578T [2], the IC50 lay within 10 to 25 µM. In addition, the IC50 in series [3] is below 0.5 µM. In the series on Hs578T [4], the IC50 is at most 12.5 µM.
Compound `COc1cc2c(Oc3ccc(NS(=O)(=O)c4cccc(OC(F)F)c4)cc3F)ccnc2cc1OCCCN1CCCC(C)C1` (stereo not drawn) [Example 43, 3-Difluoromethoxy-N-(3-fluoro-4-{6-methoxy-7-[3-(3-methyl-piperidin-1-yl)-propoxy]-quinolin-4-yloxy}-phenyl)-benzenesulfonamide] returned a melting point of 99 to 100 °C. In the series with Hs578T [1], this compound showed an IC50 of at most 12.5 µM. For the same compound, in the series with Hs578T [2], the IC50 was at most 10 µM. The same compound gave an IC50 in series [3] below 0.5 µM. Also, in the series with Hs578T [4], the IC50 was at most 12.5 µM.
Turning to `COc1cc2c(Oc3ccc(NS(=O)(=O)c4ccccc4C)cc3F)ccnc2cc1OCCCN1CCCC(C)C1` (stereo not drawn) [Example 44, N-(3-Fluoro-4-{6-methoxy-7-[3-(3-methyl-piperidin-1-yl)-propoxy]-quinolin-4-yloxy}-phenyl)-2-methyl-benzenesulfonamide], the melting point fell in the range of 99 to 100 °C. Also, the IC50 in the series on Hs578T [1] was at most 12.5 µM. Besides, the IC50 in the series on Hs578T [2] is at most 10 µM. Besides, the IC50 in series [3] was below 0.5 µM. Moreover, in the series with Hs578T [4], the IC50 was at most 12.5 µM.
`COc1cc2c(Oc3ccc(NS(=O)(=O)c4cccc(OC(F)(F)F)c4)cc3F)ccnc2cc1OCCCN1CCCC(C)C1` (stereo not drawn) [Example 46, N-(3-Fluoro-4-{6-methoxy-7-[3-(3-methyl-piperidin-1-yl)-propoxy]-quinolin-4-yloxy}-phenyl)-3-trifluoromethoxy-benzenesulfonamide]: the melting point fell in the range of 102 to 104 °C. The same compound gave an IC50 in the series with Hs578T [1] of at most 12.5 µM. Also, in the series on Hs578T [2], the IC50 was at most 10 µM. In series [3], this compound displayed an IC50 below 0.5 µM. Besides, the IC50 with Hs578T [4] is at most 12.5 µM.
In turn, `COc1cc2c(Oc3ccc(NS(=O)(=O)c4ccc(F)c(F)c4)cc3F)ccnc2cc1OCCCN1CCCC(C)C1` (stereo not drawn) [Example 48, 3,4-Difluoro-N-(3-fluoro-4-{6-methoxy-7-[3-(3-methyl-piperidin-1-yl)-propoxy]-quinolin-4-yloxy}-phenyl)-benzenesulfonamide] gave a melting point of 120 to 122 °C. Further, in the series on Hs578T [1], the IC50 was at most 12.5 µM. Also, the IC50 with Hs578T [2] was 10 to 25 µM. The same compound came in with an IC50 in series [3] below 0.5 µM. In addition, in the series with Hs578T [4], the IC50 was at most 12.5 µM.
`COc1cc2c(Oc3ccc(NS(=O)(=O)c4cc(Cl)ccc4Cl)cc3F)ccnc2cc1OCCCN1CCCC(C)C1` (stereo not drawn) [Example 50, 2,5-Dichloro-N-(3-fluoro-4-{6-methoxy-7-[3-(3-methyl-piperidin1-yl)-propoxy]-quinolin-4-yloxy}-phenyl)-benzenesulfonamide]: the melting point was 127 to 129 °C. Moreover, the IC50 in the series on Hs578T [1] was at most 12.5 µM. Further, in the series with Hs578T [2], the IC50 was at most 10 µM. The compound also had an IC50 in series [3] below 0.5 µM. In the series on Hs578T [4], the IC50 is at most 12.5 µM.
`COc1cc2c(Oc3ccc(NS(=O)(=O)c4ccc(Cl)c(Cl)c4)cc3F)ccnc2cc1OCCCN1CCCC(C)C1` (stereo not drawn) [Example 52, 3,4-Dichloro-N-(3-fluoro-4-{6-methoxy-7-[3-(3-methyl-piperidin-1-yl)-propoxy]-quinolin-4-yloxy}-phenyl)-benzenesulfonamide] returned a melting point of 123 to 124 °C. Moreover, in the series with Hs578T [1], the IC50 was at most 12.5 µM. Further, the IC50 in the series on Hs578T [2] is at most 10 µM. In series [3], this compound displayed an IC50 below 0.5 µM. The IC50 in the series with Hs578T [4] is at most 12.5 µM.
Compound `COc1cc2c(Oc3ccc(NS(=O)(=O)c4cc(Cl)cc(Cl)c4)cc3F)ccnc2cc1OCCCN1CCCC(C)C1` (stereo not drawn) [Example 53, 3,5-Dichloro-N-(3-fluoro-4-{6-methoxy-7-[3-(3-methyl-piperidin-1-yl)-propoxy]-quinolin-4-yloxy}-phenyl)-benzenesulfonamide] had a melting point of 126 to 128 °C. Besides, the IC50 in the series on Hs578T [1] was at most 12.5 µM. Besides, the IC50 in the series on Hs578T [2] was 10 to 25 µM. Moreover, the IC50 in series [3] was below 0.5 µM. The IC50 with Hs578T [4] is at most 12.5 µM.
As to `COc1cc2c(Oc3ccc(NS(=O)(=O)c4c(F)cccc4F)cc3Cl)ccnc2cc1OCCCN1CCN(C)CC1` [Example 118, N-(3-Chloro-4-{6-methoxy-7-[3-(4-methyl-piperazin-1-yl)-propoxy]-quinolin-4-yloxy}-phenyl)-2,6-difluoro-benzenesulfonamide], the melting point was 122 to 124 °C. Further, the IC50 in series [3] was below 0.5 µM.
